Assay results from patent US7718688B2, “Nitrobenzindoles and their use in cancer therapy” (Auckland Uniservices Limited, priority 2004, dated 2010).

Legend:
[1] = tested on: HT29: human colon cancer cell line; assay: Proliferation IC50 assay, oxic/hypoxic, HT29; type: cell-based; conditions: for IC50: Homo sapiens, HT-29, 4 h exposure under aerobic conditions; for HCR (hypoxic cytotoxicity ratio) HT29: IC50(aerobic)/IC10(hypoxic); for HCR HT29: IC50(aerobic)/IC50(hypoxic)
[2] = tested on: SKOV3: human ovarian carcinoma cell line; assay: Proliferation IC50 assay, oxic/hypoxic, SKOV3; type: cell-based; conditions: for IC50: Homo sapiens, SK-OV-3, 4 h exposure under aerobic conditions; for HCR (hypoxic cytotoxicity ratio) SKOV3: IC50(aerobic)/IC10(hypoxic); for HCR SKOV3: IC50(aerobic)/IC50(hypoxic)

SMILES | IC50 ([1]; Table 3) [nM] | HCR (hypoxic cytotoxicity ratio) HT29 ([1]; Table 3) | melting point | IC50 ([2]; Table 3) [nM] | HCR (hypoxic cytotoxicity ratio) SKOV3 ([2]; Table 3) | IC50 ([1]; Table 4) [nM] | HCR HT29 ([1]; Table 4) | IC50 ([2]; Table 4) [nM] | HCR SKOV3 ([2]; Table 4)
COc1cc2cc(C(=O)N3CC(CCl)c4c3cc([N+](=O)[O-])c3c([N+](=O)[O-])cccc43)[nH]c2c(OC)c1OC (stereo not shown) [Compound 1, 1-(Chloromethyl)-5,6-dinitro-3-(5,6,7-trimethoxyindol-2-carbonyl)-1,2-dihydro-3H-benzo[e]indole] | 18000 | <1 | 278 to 279 °C | > 20000 |  |  |  |  | 
COc1cc2cc(C(=O)N3CC(CCl)c4c3cc([N+](=O)[O-])c3c(C(C)=O)cccc43)[nH]c2c(OC)c1OC (stereo not shown) [Compound 3, 6-Acetyl-1-(chloromethyl)-5-nitro-3-(5,6,7-trimethoxyindol-2-carbonyl)-1,2-dihydro-3H-benzo[e]indole] | 680 | 2.0 | 180 to 183 °C | 500 | 3.4 |  |  |  | 
CN(C)CCOc1ccc2[nH]c(C(=O)N3CC(CCl)c4c3cc([N+](=O)[O-])c3cc(N)ccc43)cc2c1 (stereo not shown) [Compound 10, 7-Amino-1-(chloromethyl)-3-{5-[2-(dimethylamino)ethoxy]indol-2-carbonyl}-5-nitro-1,2-dihydro-3H-benzo[e]indole] | 1800 | 2.4 | > 300 °C | 2500 | 2.0 |  |  |  | 
CC(=O)c1ccc2c3c(cc([N+](=O)[O-])c2c1)N(C(=O)c1cc2cc(OCCN(C)C)ccc2[nH]1)CC3CCl (stereo not shown) [Compound 12, 7-Acetyl-1-(chloromethyl)-3-{5-[2-(dimethylamino)ethoxy]indol-2-carbonyl}-5-nitro-1,2-dihydro-3H-benzo[e]indole] | 170 | 1.5 | > 350 °C | 640 | 4.0 |  |  |  | 
COC(=O)c1ccc2c3c(cc([N+](=O)[O-])c2c1)N(C(=O)c1cc2cc(OC)c(OC)c(OC)c2[nH]1)CC3CCl (stereo not shown) [Compound 13, Methyl 1-(chloromethyl)-3-(5,6,7-trimethoxyindol-2-carbonyl)-5-nitro-1,2-dihydro-3H-benzo[e]indole-7-carboxylate] | 1900 | 3.2 | 256 to 257 °C | 1100 | 4.0 |  |  |  | 
COc1cc2cc(C(=O)N3CC(CCl)c4c3cc([N+](=O)[O-])c3cc(C(N)=O)ccc43)[nH]c2c(OC)c1OC (stereo not shown) [Compound 15, 1-(Chloromethyl)-5-nitro-3-[5,6,7-trimethoxyindol-2-carbonyl]-1,2-dihydro-3H-benzo[e]indole-7-carboxamide] | 7900 | 2.8 | 287 to 289 °C | 5800 | 6.1 |  |  |  | 
COc1cc2cc(C(=O)N3CC(CCl)c4c3cc([N+](=O)[O-])c3cc(C(=O)NCCO)ccc43)[nH]c2c(OC)c1OC (stereo not shown) [Compound 17, 1-(Chloromethyl)-N-(2-hydroxyethyl)-5-nitro-3-(5,6,7-trimethoxyindol-2-carbonyl)-1,2-dihydro-3H-benzo[e]-indole-7-carboxamide] | 5700 | 1.7 | 244 to 245 °C |  |  |  |  |  | 
COc1ccc(/C=C/C(=O)N2CC(CCl)c3c2cc([N+](=O)[O-])c2cc(C(=O)NCCO)ccc32)cc1 (stereo not shown) [Compound 18, 1-(Chloromethyl)-N-(2-hydroxyethyl)-3-[(E)-4-methoxycinnamoyl]-5-nitro-1,2-dihydro-3H-benzo[e]indole7-carboxamide] | 4400 | 4.4 | 240 to 241 °C | 4800 | 4.7 |  |  |  | 
COc1cc2cc(C(=O)N3CC(CCl)c4c3cc([N+](=O)[O-])c3cc(S(C)(=O)=O)ccc43)[nH]c2c(OC)c1OC (stereo not shown) [Compound 23, 1-(Chloromethyl)-7-(methylsulfonyl)-5-nitro-3-(5,6,7-trimethoxyindol-2-carbonyl)-1,2-dihydro-3H-benzo[e]indole] | 14000 | 2.0 | 296 to 297 °C (dec.) | 17000 | 1.9 |  |  |  | 
COc1ccc(/C=C/C(=O)N2CC(CCl)c3c2cc([N+](=O)[O-])c2cc(S(N)(=O)=O)ccc32)cc1O (stereo not shown) [Compound 27, 1-(Chloromethyl)-3-[(2E)-3-(3-hydroxy-4-methoxyphenyl)-2-propenoyl]-5-nitro-1,2-dihydro-3H-benzo[e]indole-7-sulfonamide] | 2400 | 1.8 | 220 to 225 °C | 13000 | 31 |  |  |  | 
COc1cc2cc(C(=O)N3CC(CCl)c4c3cc([N+](=O)[O-])c3cc(S(=O)(=O)NCCO)ccc43)[nH]c2c(OC)c1OC (stereo not shown) [Compound 33, 1-(Chloromethyl)-N-(2-hydroxyethyl)-5-nitro-3-(5,6,7-trimethoxyindol-2-carbonyl)-1,2-dihydro-3H-benzo[e]indole-7-sulfonamide] |  |  | 257 to 258 °C | 13000 | 5.8 |  |  |  | 
COc1ccc(/C=C/C(=O)N2CC(CCl)c3c2cc([N+](=O)[O-])c2cc(S(=O)(=O)NCCO)ccc32)cc1 (stereo not shown) [Compound 37, 1-(Chloromethyl)-N-(2-hydroxyethyl)-3-[(E)-4-methoxycinnamoyl]-5-nitro-1,2-dihydro-3H-benzo[e]indole-7-sulfonamide] | 4800 | 1.3 | 250 to 251 °C | 4700 | 3.4 |  |  |  | 
CC(=O)c1ccc2c([N+](=O)[O-])cc3c(c2c1)C(CCl)CN3C(=O)c1cc2cc(OCCN(C)C)ccc2[nH]1 (stereo not shown) [Compound 41, 8-Acetyl-1-(chloromethyl)-3-{5-[2-(dimethylamino)ethoxy]indol-2-carbonyl}-5-nitro-1,2-dihydro-3H-benzo[e]indole] | 150 | 1.1 | 210 to 215 °C | 200 | 1.3 |  |  |  | 
COc1cc2cc(C(=O)N3CC(CCl)c4c3cc([N+](=O)[O-])c3ccc(S(C)(=O)=O)cc43)[nH]c2c(OC)c1OC (stereo not shown) [Compound 46, 1-(Chloromethyl)-8-(methylsulfonyl)-5-nitro-3-(5,6,7-trimethoxyindol-2-carbonyl)-1,2-dihydro-3H-benzo[e]indole] | 14000 | 2.5 | 265 °C | 11000 | 4.2 |  |  |  | 
COc1cc2cc(C(=O)N3CC(CCl)c4c3cc([N+](=O)[O-])c3ccc(S(N)(=O)=O)cc43)[nH]c2c(OC)c1OC (stereo not shown) [Compound 48, 1-(Chloromethyl)-5-nitro-3-(5,6,7-trimethoxyindol-2-carbonyl)-1,2-dihydro-3H-benzo[e]indole-8-sulfonamide] | 24000 | 1.9 | 264 to 266 °C (dec.) | 12000 | 2.6 |  |  |  | 
CC(=O)c1ccc2c3c(cc(N)c2c1)N(C(=O)c1cc2cc(OCCN(C)C)ccc2[nH]1)CC3CCl (stereo not shown) [Compound 53, 7-Acetyl-5-amino-1-(chloromethyl)-3-{5-[2-(dimethylamino)ethoxy]indol-2-carbonyl}-1,2-dihydro-3H-benzo[e]indole] |  |  | 220 to 224 °C (dec.) |  |  | 7.6 | 1.5 | 11 | 1.4
COC(=O)c1ccc2c3c(cc(N)c2c1)N(C(=O)c1cc2cc(OCCN(C)C)ccc2[nH]1)CC3CCl (stereo not shown) [Compound 54, Methyl 5-amino-1-(chloromethyl)-3-{5-[2-(dimethylamino)ethoxy]indol-2-carbonyl}-1,2-dihydro-3H-benzo[e]indole-7-carboxylate] |  |  | 225 to 230 °C |  |  | 8.6 | 1.7 | 7.7 | 0.91
CN(C)CCOc1ccc2[nH]c(C(=O)N3CC(CCl)c4c3cc(N)c3cc(C(N)=O)ccc43)cc2c1 (stereo not shown) [Compound 55, 5-Amino-1-(chloromethyl)-3-{5-[2-(dimethylamino)ethoxy]indol-2-carbonyl}-1,2-dihydro-3H-benzo[e]indole-7-carboxamide] |  |  | 232 to 236 °C (dec.) |  |  | 61 | 1.4 | 13 | 1.0
CN(C)CCOc1ccc2[nH]c(C(=O)N3CC(CCl)c4c3cc(N)c3cc(C#N)ccc43)cc2c1 (stereo not shown) [Compound 56, 5-Amino-1-(chloromethyl)-3-{5-[2-(dimethylamino)ethoxy]indol-2-carbonyl}-1,2-dihydro-3H-benzo[e]indole-7-carbonitrile] |  |  | 250 to 255 °C (dec.) |  |  | 17 | 2.0 | 13 | 1.1
COc1cc2cc(C(=O)N3CC(CCl)c4c3cc(N)c3cc(S(C)(=O)=O)ccc43)[nH]c2c(OC)c1OC (stereo not shown) [Compound 57, 5-Amino-1-(chloromethyl)-7-(methylsulfonyl)-3-(5,6,7-trimethoxyindol-2-carbonyl)-1,2-dihydro-3H-benzo[e]indole] |  |  | 266 to 268 °C |  |  | 32 | 0.86 | 32 | 1.2
CN(C)CCOc1ccc2[nH]c(C(=O)N3CC(CCl)c4c3cc(N)c3cc(S(C)(=O)=O)ccc43)cc2c1 (stereo not shown) [Compound 58, 5-Amino-1-(chloromethyl)-3-{5-[2-(dimethylamino)ethoxy]indol-2-carbonyl}-7-(methylsulfonyl)-1,2-dihydro-3H-benzo[e]indole] |  |  | 280 to 285 °C |  |  | 11 | 1.6 | 14 | 1.7
